One assay deals with T1, human ENT1 (Homo sapiens, UniProt Q99808).
T1 sequence (Q99808 1-456): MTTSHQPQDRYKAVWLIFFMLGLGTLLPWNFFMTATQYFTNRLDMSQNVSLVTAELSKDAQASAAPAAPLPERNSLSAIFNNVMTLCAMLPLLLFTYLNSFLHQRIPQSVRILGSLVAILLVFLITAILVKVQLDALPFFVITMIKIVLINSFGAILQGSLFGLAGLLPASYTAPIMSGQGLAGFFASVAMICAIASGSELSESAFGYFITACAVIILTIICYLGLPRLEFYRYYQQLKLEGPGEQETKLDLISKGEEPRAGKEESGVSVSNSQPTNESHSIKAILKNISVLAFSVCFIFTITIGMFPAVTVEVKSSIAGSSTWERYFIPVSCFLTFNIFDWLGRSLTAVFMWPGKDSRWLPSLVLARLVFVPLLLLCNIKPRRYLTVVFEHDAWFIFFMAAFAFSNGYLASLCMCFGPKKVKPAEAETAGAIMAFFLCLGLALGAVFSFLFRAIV
Briefly: ENT1 binding assay (competition with Sahenta-DY647 on JAR cells). The conditions noted are these: competition with Sahenta-DY647 100 nM, 4° C. Set-up: JAR cells expressing ENT1 were bought from ATCC® (HTB-144TM); host or cells: JAR cells (human choriocarcinoma line; whole cells). An outline of the steps: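 Competition binding on intact JAR cells (50000 per well) in HBSS with 10 mM Hepes and 0.1% BSA. Cells pre-incubated with compound 30 min at 4 °C, then Sahenta-DY647 added at its IC90 (100 nM) for another 30 min at 4 °C; after washing, fluorescence read at Ex 630/Em 670 nm.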

Assay [1] deals with stimulated primary human T cells. Briefly: T cell proliferation assay (rescue of proliferation in presence of ATP, CFSE dilution). The assay is classed as cell-based. The conditions noted are these: 100 uM ATP. Here is the method:
The aim of this study was to determine the potency of equilibrative nucleoside transporter 1 (ENT1) inhibitors to rescue proliferation by stimulated primary human T cells incubated in the presence of 100 uM Adenosine triphosphate (ATP), in baseline conditions (condition A) or in the presence of various proteins known to bind small molecules (condition B). Condition A: X-VIVO15 Condition B: X-VIVO15, 2% Human Serum Albumine (HSA) and 0,1% α-1-Acid Glycoprotein (AAG)
Cryopreserved purified human CD3+ T cells were thawed and washed twice with RPMI1640 medium, UltraGlutamine containing 10% hiFBS.
Cells were suspended in PBS containing 10% hiFBS. Cells were stained with CFSE by adding 2 µM solution in PBS, to get a final 1 µM CFSE solution. Cells were incubated while rotating for 5 minutes. Reaction was stopped by adding PBS with 10% FBS and cells were centrifuged for 5 minutes at 1500 rpm.
Cells were resuspended at 1.6 ×10^6 cells/mL, either in X-VIVO15 medium or in 4% Human Serum Albumin and 0,2% α-1-Acid Glycoprotein. 50 µL of cell suspension (8×10^4 T cells) was added to wells of sterile round-bottom 96-well plates. Cells were activated by adding 50 µL of anti-CD3 anti-CD28 coated microbeads, suspended either in XVIVO-15 medium or in 4% HSA and 0,2% α-1-Acid Glycoprotein, at a ratio of one microbead per two cells. Serial dilutions of the ENT1 inhibitors were prepared in X-VIVO15 from 10 mM stock solutions in DMSO, and 50 µL was added to the wells. ATP powder was diluted in X-VIVO15, and 50 µL of this compound was added to the wells to reach a final assay concentration of 100 µM. Final volume of 200 µL. The experiments were also performed in 384 well plates - all volumes reduced by a factor of 4 (12,5 µL) with a final volume of 50 µL. Experiments were performed in duplicate. The cells were placed in a 37° C. humidified tissue culture incubator with 5% CO2 for 72 hours for 96 well plates, 96 hours for 384 well plates. After 72 or 96 hours, proliferation was measured determined by CFSE dilution via flow cytometry.

Setting [2] is: Condition A: X-VIVO15, read-out: T Cell proliferation (Condition A) IC50.
The mark [3] stands for this setting: Condition B: X-VIVO15, 2% HSA and 0,1% AAG, read-out: (2) T Cell proliferation (Condition B) IC50.

Where two headings read alike, the source gives them in different places. A value given as a limit tells only on which side of the number the result lay.

For `COc1cc2cc(c1OC)CCC[C@@H](OC(=O)c1cc(OC)c(OC)c(OC)c1)CCN1CCCN(CCCNC2=O)CC1` [Compound 14, (11R)-74,75-dimethoxy-6-oxo-5-aza-1(1,4)-diazepana-7(1,3)-benzenacyclotridecaphane-11-yl 3,4,5-trimethoxybenzoate], the IC50 on human ENT1 is 1 to 20 nM; in assay [1] (setting [2]), 1 to 20 nM; in assay [1] (setting [3]), above 500 nM.

On to `COc1cc2cc(c1OC)OCCC[C@H](OC(=O)c1ccccc1)CCN1CCCN(CCCOC2=O)CC1` [Compound 33, (12S)-74,75-dimethoxy-6-oxo-5,8-dioxa-1(1,4)-diazepana-7(1,3)-benzenacyclotetradecaphane-12-yl benzoate], for which the IC50 (on human ENT1; in assay [1] (setting [2]); in assay [1] (setting [3])) was above 500 nM in each case.

With `COc1cc2cc(c1OC)OCCCC(O/N=C\c1ccccc1)CCN1CCCN(CCCOC2=O)CC1` (stereo not drawn) [Compound 37, (Z)-benzaldehyde O-(74,75-dimethoxy-6-oxo-5,8-dioxa-1(1,4)-diazepana-7(1,3)-benzenacyclotetradecaphane-12-yl) oxime], the IC50 is 20 to 500 nM on human ENT1, 1 to 20 nM in assay [1] (setting [2]) and above 500 nM in assay [1] (setting [3]).

In the case of `COc1cc2cc(c1OC)OCCC[C@@H](O)CCN1CCCN(CCCOC2=O)CC1` [Compound 39, (12R)-12-hydroxy-74,75-dimethoxy-5,8-dioxa-1(1,4)-diazepana-7(1,3)-benzenacyclotetradecaphan-6-one], the IC50 is above 500 nM at human ENT1, 20 to 500 nM in assay [1] (setting [2]) and above 500 nM in assay [1] (setting [3]).

As for `COc1cc2cc(c1OC)OCCCC(OC(=O)c1ccc(OC(C)C)cc1)CCN1CCCN(CCCOC2=O)CC1` (stereo not drawn) [Compound 43, 74,75-dimethoxy-6-oxo-5,8-dioxa-1(1,4)-diazepana-7(1,3)-benzenacyclotetradecaphane-12-yl 4-isopropoxybenzoate], the figures for the IC50 (on human ENT1; in assay [1] (setting [2]); in assay [1] (setting [3])) were 20 to 500 nM, below 1 nM and 1 to 20 nM, respectively.

`COc1cc2cc(c1OC)OCCCC(OC(=O)c1cccc(Oc3ccccc3)c1)CCN1CCCN(CCCOC2=O)CC1` (stereo not drawn) [Compound 46, 74,75-dimethoxy-6-oxo-5,8-dioxa-1(1,4)-diazepana-7(1,3)-benzenacyclotetradecaphane-12-yl 3-phenoxybenzoate]: the IC50 at human ENT1 is 20 to 500 nM; in assay [1] (setting [2]) it was 1 to 20 nM; in assay [1] (setting [3]), 20 to 500 nM.

For the molecule `COc1cc2cc(c1OC)OCCCC(OC(=O)c1cnccn1)CCN1CCCN(CCCOC2=O)CC1` (stereo not drawn) [Compound 54, 74,75-dimethoxy-6-oxo-5,8-dioxa-1(1,4)-diazepana-7(1,3)-benzenacyclotetradecaphane-12-yl pyrazine-2-carboxylate], the IC50 on human ENT1 is 1 to 20 nM; in assay [1] (setting [2]), 20 to 500 nM; in assay [1] (setting [3]), above 500 nM.

For the molecule `COc1cc2cc(c1OC)OCCCC(OC(=O)c1c[nH]nn1)CCN1CCCN(CCCOC2=O)CC1` (stereo not drawn) [Compound 58, 74,75-dimethoxy-6-oxo-5,8-dioxa-1(1,4)-diazepana-7(1,3)-benzenacyclotetradecaphane-12-yl 1 H-1,2,3-triazole-4-carboxylate], the IC50 is 1 to 20 nM on human ENT1, 1 to 20 nM in assay [1] (setting [2]) and above 500 nM in assay [1] (setting [3]).

Consider `COc1cc2cc(c1OC)OCCCC(OC(C)=O)CCN1CCCN(CCCOC2=O)CC1` (stereo not drawn) [Compound 59, 74,75-dimethoxy-6-oxo-5,8-dioxa-1(1,4)-diazepana-7(1,3)-benzenacyclotetradecaphane-12-yl acetate], for which the figures for the IC50 (at human ENT1; in assay [1] (setting [2]); in assay [1] (setting [3])) were 1 to 20 nM, 1 to 20 nM and above 500 nM, respectively.

Take `COc1cc2cc(c1OC)OCCCC(OC(=O)C1CC1)CCN1CCCN(CCCOC2=O)CC1` (stereo not drawn) [Compound 60, 74,75-dimethoxy-6-oxo-5,8-dioxa-1(1,4)-diazepana-7(1,3)-benzenacyclotetradecaphane-12-yl cyclopropanecarboxylate]: the IC50 is 1 to 20 nM at human ENT1, 1 to 20 nM in assay [1] (setting [2]) and above 500 nM in assay [1] (setting [3]).

Turning to `COCCC(=O)OC1CCCOc2cc(cc(OC)c2OC)C(=O)OCCCN2CCCN(CC1)CC2` (stereo not drawn) [Compound 93, 74,75-dimethoxy-6-oxo-5,8-dioxa-1(1,4)-diazepana-7(1,3)-benzenacyclotetradecaphane-12-yl 3-methoxypropanoate], the figures for the IC50 (at human ENT1; in assay [1] (setting [2]); in assay [1] (setting [3])) were 1 to 20 nM, 1 to 20 nM and above 500 nM, respectively.

Turning to `COc1cc2cc(c1OC)OCCCC(OC(=O)CCn1cccn1)CCN1CCCN(CCCOC2=O)CC1` (stereo not drawn) [Compound 94, 74,75-dimethoxy-6-oxo-5,8-dioxa-1 (1,4)-diazepana-7(1,3)-benzenacyclotetradecaphane-12-yl 3-(1H-pyrazol-1-yl)propanoate], the IC50 at human ENT1 was 1 to 20 nM; in assay [1] (setting [2]), 1 to 20 nM; in assay [1] (setting [3]), above 500 nM.

As for `COc1cc2cc(c1OC)OCCCC(OC(=O)CCCC#N)CCN1CCCN(CCCOC2=O)CC1` (stereo not drawn) [Compound 96, 74,75-dimethoxy-6-oxo-5,8-dioxa-1 (1,4)-diazepana-7(1,3)-benzenacyclotetradecaphane-12-yl 4-cyanobutanoate], the IC50 was 1 to 20 nM on human ENT1, 1 to 20 nM in assay [1] (setting [2]) and above 500 nM in assay [1] (setting [3]).

For the molecule `COc1cc2cc(c1OC)OCCCC(OC(=O)CCCNC(C)=O)CCN1CCCN(CCCOC2=O)CC1` (stereo not drawn) [Compound 97, 74,75-dimethoxy-6-oxo-5,8-dioxa-1(1,4)-diazepana-7(1,3)-benzenacyclotetradecaphane-12-yl 4-acetamidobutanoate], the values for the IC50 (at human ENT1; in assay [1] (setting [2]); in assay [1] (setting [3])) were 1 to 20 nM, below 1 nM and above 500 nM, respectively.

Take `COc1cc2cc(c1OC)OCCCC(OC(=O)CCC(=O)N(C)C)CCN1CCCN(CCCOC2=O)CC1` (stereo not drawn) [Compound 99, 74,75-dimethoxy-6-oxo-5,8-dioxa-1(1,4)-diazepana-7(1,3)-benzenacyclotetradecaphane-12-yl 4-(dimethylamino)-4-oxobutanoate]: the figures for the IC50 (on human ENT1; in assay [1] (setting [2]); in assay [1] (setting [3])) were 1 to 20 nM, below 1 nM and 20 to 500 nM, respectively.

Regarding `COc1cc2cc(c1OC)OCCCC(OC(=O)CCNC(C)=O)CCN1CCCN(CCCOC2=O)CC1` (stereo not drawn) [Compound 100, 74,75-dimethoxy-6-oxo-5,8-dioxa-1(1,4)-diazepana-7(1,3)-benzenacyclotetradecaphane-12-yl 3-acetamidopropanoate], the IC50 at human ENT1 was 1 to 20 nM; in assay [1] (setting [2]) it was 1 to 20 nM; in assay [1] (setting [3]), above 500 nM.

The record behind these values is US20230203058A1, “MACROCYCLIC DIAMINE DERIVATIVES AS ENT INHIBITORS FOR THE TREATMENT OF CANCERS, AND COMBINATION THEREOF WITH ADENOSINE RECEPTOR ANTAGONISTS” (ITEOS BELGIUM SA, priority 2020, published 2023).
